How the values were obtained:
[1] = tested on: MDA-MB-438; test: WST-1 proliferation assay, MDA-MB-438; type: cell-based; details: Homo sapiens; for IC50: Breast MDA-MB-438, 72 h, read-out: Anti-proliferative activity IC50 (μM) ± SD; for inhibition at 0.1 µM: MDA-MB-438, 0.1 μM; for inhibition at 0.5 µM: MDA-MB-438, 0.5 μM; for inhibition at 1 µM: MDA-MB-438, 1 μM
Description: Several cancer cell lines were used: breast cancer cells (MDA-MB-231 (ATTCC® Number HTB-26™), MDA-MB-436 (ATTCC® Number HTB-130™), MDA-MB-438, BT-474 (ATTCC® Number HTB-20™)); cervical cancer cells (HeLa (ATTCC® Number CCL-2™)); colon cancer cells (HCT-116 (ATTCC® Number CCL-247™) and HT-29 (ATTCC® Number HTB-38™)); osteosarcoma cells (U2OS (ATTCC® Number HTB-96™)); pancreas cancer cells (MIA PaCa-2 (ATTCC® Number CRL-1420™) and Panc-10.5 (ATTCC® Number CRL-2547™)); prostate cancer cells (PC-3 (ATTCC® Number CRL-1435™) and LNCaP (ATTCC® Number CRL-1740™)); brain cancer cells (U87 glioblastoma (ATTCC® Number HTB-14™) and SH-SYSY neuroblastoma (ATTCC® Number CRL-2266™)).
(§1) All the cancer cell lines were maintained in cultured in DMEM GlutaMAX™ (GIBCO Invitrogen, France, cat no 31966047) enhanced with 10% foetal bovine serum (GIBCO Invitrogen, France, cat no 10270-106) and 1% penicillin G/streptomycin (GIBCO Invitrogen, France, cat no 15140-122). Only Panc-10.5 cells were cultivated in RPMI 1640 medium (Gibco) supplemented with 2 mM L-glutamine, 1.5 g/L sodium bicarbonate, 4.5 g/L glucose, 10 mM HEPES, 1 mM sodium pyruvate, 10 Units/ml human insulin, […] (SVF): 15% (75 ml in 500 ml of medium).
Cells were grown as subconfluent monolayer and cultured in 75 cm^2 flasks at 37° C., 5% CO2 in a humidified atmosphere, and medium was changed every two days. Only cells from passages 2-6 were used for the experiments.
After observation of cells under the microscope, old media were removed and the adherent cells washed gently twice with PBS (Phosphate Buffer Saline, —Ca^2+, —Mg^2+, Lonza cat no: 17-512F/12). All cells were detached with 3 ml of trypsin/EDTA (chelator of calcium and magnesium ions) (Lonza), incubated for 5 min at 37° C., and examined using a microscope to ensure that the cells were detached and floating. Then, 3 ml TNS (Trypsin Neutralizing Solution, Lonza, France, cat no CC-5002) or of culture medium were added to inactivate the trypsin, and the cell suspension was transferred in a falcon and centrifuged for 7 min at 1400 rpm. The supernatant was removed and the cell pellet resuspended in […] of culture medium. 50 μl of this solution were transferred in 20 μl of isotonic solution and the cells were counted by count cellular (Beckman Coulter). At day 0, 200 μl of cellular suspension (3.10^3 cells/well for the HUVEC cells, breast cancer cells (MDA-MB-231 1.10^4 cells/well, MDA-MB-436 1.10^4 cells/well, MDA-MB-438 2.10^4 cells/well, BT-474 2.5.10^4 cells/well); cervical cancer cells (HeLa 5.000 cells/well); colon cancer cells (HCT-116 5.10^3 cells/well, HCT-29 1.1.10^4 cells/well); osteosarcoma cells (U2OS 8.10^3 cells/well); pancreas cancer cells (MIA PaCa-2 5.10^3 cells/well, Panc-10.5 1.5.10^4 cells/well); prostate cancer cells (PC-3 4.10^3 cells/well, LNCaP 2.10^4 cells/well); brain cancer cells (U87 5.10^3 cells/well, SH-SYSY 8.10^4 cells/well)) were then plated on 96 well plates and incubated at 37° C. in a humidified atmosphere of 5% CO2 for 24 h.
At day 1, the compounds 1 or 2 of the invention were added at increasing concentrations (0.1-10 μM) in the wells and plates were incubated at 37° C. in a humidified atmosphere of 5% CO2 for 72 h.
The cell proliferation WST-1 assay is a colorimetric assay for the quantification of cell proliferation and viability, based on the enzymatic cleavage of the tetrazolium salt WST-1 added to the culture medium, to a water soluble colored formazan dye, detected by absorbance at 450 nm, by mitochondrial succinate-tetrazolium reductase in viable cells. An augmentation in enzyme activity will then lead to an increase in the amount of formazan dye formed, which directly correlates to the number of metabolically active cells in the culture.
After an incubation period of 72 h, at day 4, were prepared the 19 ml medium with reagent WST-1 1 ml ([…]). The medium was removed from the 96 microplate and 200 μl of solution WST-1/medium were added for each well. […]

[2] = tested on: OPM-2; test: WST-1 proliferation assay, OPM-2; type: cell-based; details: Homo sapiens; Myeloma OPM-2; read-out: Anti-proliferative activity IC50 (μM) ± SD
Protocol: as §1
Cells were grown as subconfluent monolayer and cultured in 75 cm^2 flasks at 37° C., 5% CO2 in a humidified atmosphere, and medium was changed every two days. […]
The cell proliferation WST-1 assay is a colorimetric assay for the quantification of cell proliferation and viability, based on the enzymatic cleavage of the tetrazolium salt WST-1 added to the culture medium, to a water soluble colored formazan dye, detected by absorbance at 450 nm, by mitochondrial succinate-tetrazolium reductase in viable cells. […]
After an incubation period of 72 h, at day 4, were prepared the 19 ml medium with reagent WST-1 1 ml ([…]). […] The cells were incubated at 37° C. in a humidified atmosphere of 5% CO2 for 1 h 30 and the absorbance at 450-655 nm was measured by Microplate Manager 5.2 (Bio-Rad).

[3] = tested on: MDA-MB-231 cells; test: In vivo MDA-MB-231 tumor study in NOD-SCID mice; details: for tumor size: oral gavage (FIG. 8B); for percentage of survival at day 35: oral gavage (FIG. 8C)
Protocol: Female (NOD-SCID) mice 5-6 weeks old were injected subcutaneously with MDA-MB-231 cells (5.10^6) at a single site on their right flanks. Tumors were allowed to grow (19 days) to less than […] before being pair-matched by tumor size into treatment groups (8 mice/group). One group was treated with vehicles (8 mice/group receiving cremofor 12.5%/ethanol 12.5%/H2O), one group was treated with 10 mg/kg of the compound 1 of the invention (8 mice/group receiving compound 1+cremofor 12.5%/ethanol 12.5%/H2O), one group was treated with 50 mg/kg of the compound 1 of the invention ([…] receiving compound 1+cremofor 12.5%/ethanol 12.5%/H2O). All groups received daily by oral gavages for 5 consecutive days/weeks approximately 100 μL of a solution containing the compound 1 of the invention. Mice were weighed regularly to assess toxicity of the treatments and the tumors were measured with calipers (width×width×length×Pi/6) to determine tumor growth. Mice survival was assessed during the study and metastatic development was investigated in lung, spleen and liver.

Row | Structure (SMILES) | IC50 [1] | inhibition at 0.1 µM [1] | inhibition at 0.5 µM [1] | inhibition at 1 µM [1] | IC50 [2] | tumor size ([3]; 10 mg/kg) | percentage of survival at day 35 ([3]; 10 mg/kg) | tumor size ([3]; 50 mg/kg) | percentage of survival at day 35 ([3]; 50 mg/kg)
1 | Cc1ccc(-c2nc3ccccc3[nH]2)cc1NC(=S)NC(=O)c1ccc2c(c1)OCCO2 [Compound 1, N-[5-(1H-benzimidazol-2-yl)-2-methylphenyl]-N′-(2,3-dihydro-1,4-benzodioxin-6-ylcarbonyl)thiourea] | 1 µM | 4% | 40% | 55% | 2.5 ± 0.09 µM | tumor size was smaller | about 70% | tumor size was smaller | 100%
2 | O=C(NC(=S)Nc1cccc(-c2nc3ccccc3[nH]2)c1)c1ccc2c(c1)OCCO2 [Compound 2, N-[3-(1H-benzimidazol-2-yl)phenyl]-N′-(2,3-dihydro-1,4-benzodioxin-6-ylcarbonyl)thiourea] | 0.5 ± 0.03 µM | 34% | 51% | 58% | 0.5 ± 0.01 µM | – | – | – | –

From patent US20130041005A1, “PHARMACEUTICAL COMPOSITIONS COMPRISING NEUROPILIN INHIBITORS, AND THEIR USE FOR THE PREVENTION AND/OR TREATMENT OF ANGIOGENIC DISORDERS AND CANCERS” (TRAGEX PHARMA, priority 2011, published 2013)
